Data on 5 compounds can be found in patent publication US7470821B2, “Aldolase-inhibiting aromatic compounds” (Valorisation-Recherche, Limited Partnership, priority 2003, dated 2008).

One test addresses T1, rabbit muscle aldolase (Oryctolagus cuniculus, UniProt P00883).
T1 sequence (P00883 1-364): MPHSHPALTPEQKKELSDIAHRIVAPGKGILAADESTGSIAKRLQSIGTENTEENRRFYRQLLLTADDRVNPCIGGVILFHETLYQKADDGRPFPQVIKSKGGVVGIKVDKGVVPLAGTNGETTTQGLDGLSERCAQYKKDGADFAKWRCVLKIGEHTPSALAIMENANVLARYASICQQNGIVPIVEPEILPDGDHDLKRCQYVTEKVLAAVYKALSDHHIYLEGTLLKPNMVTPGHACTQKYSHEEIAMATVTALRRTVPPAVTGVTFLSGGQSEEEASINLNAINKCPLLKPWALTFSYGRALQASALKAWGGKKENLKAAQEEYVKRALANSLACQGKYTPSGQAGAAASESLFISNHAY
Conditions: cited from earlier work; for Ki: Blonski et al., 1997.

Test [1] deals with T2, native aldolase from rabbit muscle (RM) (Oryctolagus cuniculus, UniProt P00883).
T2 construct: made in house
T2 sequence (P00883 1-364): T1 sequence (P00883 1-364)
Briefly: Aldolase activity by coupled enzyme test (TIM/GDH), inactivation and reactivation kinetics. It counts as biochemical. The protocol: Aldolase activity was measured using a coupled enzyme test system: the triose-phosphate isomerase and glycerol-3-phosphate deshydrogenase (TIM/GDH) system, following oxidation of the NADH (Boehringer-Mannheim, France) at 340 nm, by means of a SAFAS spectrophotometer preheated to 25° C. Testing began with the addition of the substrate (Fru(1.6)P2; […] in final concentration), to complete an aldolase solution created in a triethanolamine buffer (TEA buffer) (100 Mm TEA/HCl; 50 mM NaCl; 1 mM EDTA, pH 7.6; ionic strength 0.15), 0.42 mM of NADH, and containing both enzyme systems (10 μg/mL of GDH and 1 μg/mL of TIM) for a final volume of 1 mL. The construction, overexpression and purification of recombinant aldolase were carried out in accordance with Morris A. J. et al., 1993 (J. Biol. Chem., 265:1095-1100) and Berthiaume L. et al., 1993 (J. Biol. Chem., 268:10826-10835).
The substrate cleavage rate was determined by measuring the decrease in absorbance/minute at 340 nm. The aldolase was dialyzed overnight at 4° C. against a TEA buffer prior to use. The protein concentration was determined by spectrophotometry, using ε280=0.91 mL.mg^−1.cm^−1 as an extinction coefficient. Subunit concentration was determined on the basis of a molecular weight of 159,000 for an aldolase tetramer. • Kinetic Method:
In the extreme situation where k−2 approaches zero, a reversible slow-binding inhibitor may resemble an irreversible one directed toward the active site. In this situation, the equation eqn.(3) is used for this type of inhibition (Meloche H. P., 1967, Biochemistry, 6:2273-2280). The semi-inactivation time of the enzyme (t1/2) is defined as a function of the mutual inhibitor concentration and is graphically represented by a straight line crossing the Y-axis at […] and crossing the X-axis at −1/Ki. • Experimental Protocol:
Native aldolase (5 μM of subunits) is incubated in the presence of FHN-P (0.05-1 mM) in TEA buffer. Enzyme activity is analyzed as a function of time using 10 μl aliquot portions.
Inactivation kinetics follow pseudo-first-order kinetics, and kinetic parameters Ki and k2 are determined by using the equation eqn.(3). To determine the reactivation rate, aldolase (25 μM of subunits in the TEA buffer) is incubated with 500 μM of FHN-P until reaching 90% inactivation. Excess inhibitor is removed by ultrafiltration with a PM-30 Millipore membrane. The enzyme-inhibitor complex is incubated in the TEA buffer (15 μM of subunits at final concentration) containing hexitol-P2 (10 mM). Aliquot portions (10 μl) are removed at different times to measure aldolase activity.
Controls involve repeating the protocol without FHN-P. The reactivation process is analyzed as if it were a first-order reaction. • Monitored by UV-Visible Differential Spectroscopy.

The mark [2] stands for this setting: rabbit muscle aldolase, read-out: dissociation constant (or inhibition constant) Ki.

Each structure is given as a SMILES string. Where two headings read alike, the source gives them in different places.

As to `O=Cc1ccc(OP(=O)(O)O)cc1` [HBA-P, benzaldehyde-4-phosphate], at rabbit muscle aldolase (setting [2]), the Ki is around 500 µM.

Take `O=Cc1ccc(OP(=O)(O)O)cc1O` [2-hydroxybenzaldehyde-4-phosphate]: the “reduction of aldolase activity” value on rabbit muscle aldolase (inhibitor concentration of around 200 μM) is on record as 80%. Besides, the Ki at rabbit muscle aldolase (reversible time-dependent inhibitor, read-out: global inhibition constant Ki*) is 35 ± 5 µM.

With `O=P(O)(O)Oc1ccc(OP(=O)(O)O)cc1` [HQN-P2], at rabbit muscle aldolase (setting [2]), the Ki is around 135 µM.

Consider `O=P(O)(O)Oc1cccc(OP(=O)(O)O)c1` [RSN-P2], for which the Ki at rabbit muscle aldolase (setting [2]) is around 50 µM.

For the compound `O=Cc1ccc2cc(O)ccc2c1O` [DHNA, 1,6-dihydroxy-2-naphthaldehyde, reference compound], the “aldolase inactivation (in words)” value in test [1] (250 μM, same conditions as Table 1) is “totally inactive”. Also, in test [1] (RM 0.2 mg/mL, compound 250 μM, TEA buffer pH 7.6, 80 min incubation, RM alone 12.5 ± 0.5), the Specific activity amounted to 12.5 ± 0.5 Unit/mg.
